Where “and” joins values, the source holds several entries; their conditions need not be identical. Identical values can stand only once.
How the values were obtained:
[1] = system: white shrimp L. vannamei; conditions: in vivo
[2] = system: White Spot Syndrome Virus (WSSV); assay: Challenge of shrimp L. vannamei with White Spot Syndrome Virus, survival; assay type: in vivo; conditions: for survival rate: positive control 10%
Protocol: The virus is isolated from WSSV-infected adult L. vannamei shrimp obtained from commercial farms located in Sinaloa, Mexico in 2013. Virus stocks were purified from infected shrimp homogenates by improved differential centrifugation as described previously by Du et al, (Du, H. H., Fu, L. L., Xu, Y. X., Kil, Z. S., Xu. Z. R. 2007. Aquaculture, 262:532-534) and then stored at −80° C. For assays, the WSSV stock is serially diluted to prepare solutions containing various target copy numbers determined by competitive PCR.
A volume of 20 μL of different dilutions of the tissue homogenate (containing WSSV in 330 mM of NaCl) is injected intramuscularly in fourth or fifth abdominal segment of L. vannamei using an insulin needle. The mortality is recorded twice a day and dead shrimp are tested by PCR to highlight the presence of WSSV.
There are two control groups: • 1.
The shrimp mortality percentage is recorded daily.
Dead shrimp are recorded daily during 120 hours.

[3] = system: Vibrio parahaemolyticus CAIM 170; conditions: V. parahaemolyticus 1×10^6 cfu/mL, after 96 h; dose 5 mg/g of feed; untreated infected about 30%
[4] = commercial diet supplemented 5 mg/g, fed ad libitum up to 28 days
[5] = system: SOD; conditions: RT q-PCR, treated vs non-treated shrimp; feed 5 mg/g
Protocol: (§1) Primer design is performed in the online application «primer3plus» (Untergasser, A., Nijveen, H., Rao, W., Bisseling, T., Geurts, R., Leunissen, J. A. M. 2007, Nucleic Acids Research, 35: 71-74) based in the following features: 18-24 nt length; GC content 35-65% product size 80-250 bp; and ≤2 GC clamp (Wang, X. and Seed, B., 2007). The primers are evaluated in the online application «Oligo Evaluator» Sigma Aldrich™ (St' Louis, Mo.) to check thermodynamic characteristics based in self-aligned primer and primer-dimer structures. The primers selected are ≤−2 Kcal/mol and evaluated using an in silico PCR software «Primer Digital» (Kalender et al., 2011). RNA extracts used for the microarray hybridizations are converted to cDNA using promega GoScript™ Reverse Transcription System (Promega Corporation, Madison, Wis., USA) and SsoFast™ EvaGreen® Supermix (Bio-Rad, Hercules, Calif., USA) for RT-qPCR.

[6] = system: Toll-Like Receptor; conditions: RT q-PCR, treated vs non-treated shrimp; feed 5 mg/g
Protocol: as §1

Question: Which results are given for `C[N+](C)(C)CCOB1OB2OB(O1)OB1OB(O2)O1.[Cl-]` [choline/pentaborate complex]?
Answer: toxicity (summary statement) [1]: not toxic; impact of WSSV infection (summary statement) ([2]; 5 mg/g in feed diets, standardized injection protocols): effective in reducing impact of WSSV infection; survival ([2]; 1% WSSV suspension, 96 h post-challenge, 5 mg/g feed, positive control about 35%, p<0.05): 85%; survival ([2]; 1% WSSV suspension, after 72 h, 5 mg/g feed, positive control about 65%): 95%; survival rate ([2]; 3% WSSV suspension, 96 h post-challenge, 1 mg/g feed): ~40%; survival rate ([2]; 3% WSSV suspension, 96 h post-challenge, 5 mg/g feed): ~40%; survival ([2]; 3% WSSV suspension, after 48 hours, 5 mg/g feed, positive control about 80%): 95%; survival [3]: > 80% and 84%; increment in mean weight compared with control group [4]: 20%; increase of expression of SOD gene [5]: more than 200 fold; increase of expression of Toll-Like Receptor gene [6]: more than 200 fold

— patent US10899776B2, “Antiviral and antibacteria agents based on quaternary ammonium compound complexed with boric acid and its derivatives” (B-Organic Films Corp, priority 2015, dated 2021)
